Data as given in patent US20170158776A1, “TREATMENT OF LUNG CANCER USING A COMBINATION OF AN ANTI-PD-1 ANTIBODY AND ANOTHER ANTI-CANCER AGENT” (Bristol-Myers Squibb Company, priority 2014, published 2017).
Several values for one entry are separate records, joined by “and”; a condition that tells them apart may be missing. Equal values may be shown once. Entries after “also recorded” stand apart in the source; their conditions may differ. Marks after values point to notes of the source that are not given here.

Key:
[1] = test system: heavily pretreated patients with advanced NSCLC; assay: CA209-003 phase 1: nivolumab monotherapy, safety
[2] = test system: heavily pretreated patients with advanced NSCLC; assay: CA209-003 phase 1: nivolumab monotherapy, efficacy (RECIST 1.0, OS, subgroups, PD-L1); format: in vivo, human
Procedure: Objective response rate (ORR) was analyzed according to select patient characteristics (age, gender, Eastern Cooperative Oncology Group performance status [ECOG PS], histology, number of prior therapies, prior tyrosine kinase inhibitor [TKI] therapy, epidermal growth factor receptor [EGFR] and Kirsten rat sarcoma viral oncogene homolog [KRAS] mutational status).
PD-L1 expression in archived tumor samples was measured using the Dako immunohistochemistry (IHC) assay. Positive staining with this assay was defined as tumor membrane staining at any intensity, and was analyzed with cut-off values of 1% and 5% expression to assess PD-L1 positivity (Butte M J, et al.). Tumor PD-L1 expression was evaluated for potential association with clinical endpoints.

patients with NSCLC [3] = assay: Nivolumab monotherapy arm (Arm F), safety; format: in vivo, human; conditions: 3 mg/kg q2w
Procedure: (§1) One arm was developed to test the effect of nivolumab monotherapy on NSCLC. Patients were treated with 3 mg/kg nivolumab (nivo) q2w (once every 2 weeks).

[4] = test system: pts with advanced NSCLC after first-line PT-based chemotherapy; design: species or system human; conditions: in vivo
Procedure: (§2) Pts with no progression within 42 days of completing ≧4 cycles first-line PT-based chemotherapy (±BEV) were assigned to either nivolumab (N) 5 mg/kg IV Q3W+BEV 15 mg/kg IV Q3W (non-squamous [non-sq] pts only; n=12) or N 3 mg/kg IV Q2W monotherapy (sq arm [n===8] or non-sq arm [n=13]) until progression/unacceptable toxicity (treatment beyond progression allowed based on protocol-defined criteria). ORR was evaluated using RECIST 1.1.

[5] = test system: pts with advanced NSCLC after first-line PT-based chemotherapy; assay: Phase 1: switch to nivolumab maintenance as monotherapy or with bevacizumab, efficacy (RECIST 1.1); format: in vivo, human
Procedure: as §2

patients with NSCLC [6] = assay: Nivolumab monotherapy arm (Arm F), efficacy; format: in vivo, human
Procedure: as §1

PD-1 = molecular target: T1, PD-1 (Homo sapiens, UniProt Q15116); conditions: 15 subjects, 0.3 mg/kg to 10 mg/kg, across all doses, cited from earlier work
T1 construct: Receptor-occupancy data from 15 subjects who received 0.3 mg/kg to 10 mg/kg dosing with nivolumab; endogenous in cells
T1 sequence (Q15116 25-288): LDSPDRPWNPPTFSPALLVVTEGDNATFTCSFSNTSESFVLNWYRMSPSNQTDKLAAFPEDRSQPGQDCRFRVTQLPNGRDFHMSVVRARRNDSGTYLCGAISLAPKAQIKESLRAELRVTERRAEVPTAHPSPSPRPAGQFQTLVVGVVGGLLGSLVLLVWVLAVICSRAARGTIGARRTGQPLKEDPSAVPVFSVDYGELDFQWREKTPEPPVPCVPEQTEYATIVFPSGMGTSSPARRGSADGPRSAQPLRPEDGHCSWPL

## nivolumab
[1]; N = 129
  Patients with any treatment-related select AE, Any Grade: 41 (53) % (n)
  Patients with any treatment-related select AE, Grade 3-4: 5 (6) % (n)
  select AE Endocrinopathies, Any Grade: 6 (8) % (n)
  select AE Endocrinopathies, Grade 3-4: 0 % (n)
  select AE Gastrointestinal, Any Grade: 12 (15) % (n)
  select AE Gastrointestinal, Grade 3-4: 1 (1) % (n)
  select AE Hepatic, Any Grade: 5 (6) % (n)
  select AE Hepatic, Grade 3-4: 1 (1) % (n)
  select AE Infusion reaction, Any Grade: 4 (5) % (n)
  select AE Infusion reaction, Grade 3-4: 1 (1) % (n)
  select AE Pulmonary, Any Grade: 7 (9)^c % (n)
  select AE Pulmonary, Grade 3-4: 2 (3) % (n)
  select AE Renal, Any Grade: 3(4) % (n)
  select AE Renal, Grade 3-4: 0 % (n)
  select AE Skin, Any Grade: 16 (20) % (n)
  select AE Skin, Grade 3-4: 0 % (n)
[1]; NSCLC cohort
  decreased appetite: 12%
  diarrhea: 10%
  fatigue: 24%
[1]; NSCLC cohort (n = 129)
  Rate of grade 3-4 treatment-related AEs: 14%
[1]; NSCLC cohort, 4 patients
  patients with grade 3-5 treatment-related pneumonitis: 3%
[1]; NSCLC cohort, 12 patients
  patients with treatment-related pulmonary events: 9%
[1]; all associated with pneumonitis
  treatment-related deaths: Three
[1]; overall study patient population (N = 306)
  Rate of grade 3-4 treatment-related AEs: 17%
[1]; up to 10 mg/kg every two weeks
  maximum tolerated dose: without reaching the maximum tolerated does (MTD); also recorded: A maximum tolerated dose was not reached
[2]; 1 mg/kg
  Estimated Median DOR: 63.9 wks
  Median OS: 9.2 mo
  Median PFS: 1.8 mo
  ORR: 3.0%
  OS Rate 1-year: 32%
  OS Rate 2-year: 12%
[2]; 3 mg/kg
  Estimated Median DOR: 74.0 wks
  Median OS: 14.9 mo
  Median PFS: 1.9 mo
  ORR: 24% and 24.3%
  OS Rate 1-year: 56%
  OS Rate 2-year: 45%
[2]; 10 mg/kg
  Estimated Median DOR: 83.1 wks
  Median OS: 9.2 mo
  Median PFS: 3.7 mo
  ORR: 20.3%
  OS Rate 1-year: 40%
  OS Rate 2-year: 19%
[2]; 5 of 6
  of these, responses ongoing at the time of reporting: 83%
[2]; 6/16
  responders who discontinued for reasons other than disease progression and responded for >30 weeks after the last dose: 38%
[2]; 10/22
  Responses ongoing at the time of analysis: 45%
[2]; 11/22
  patients with ORs with response at first assessment (8 weeks): 50%
[2]; All doses
  Estimated Median DOR: 74 wks and 74.0 wks
  Median OS: 9.9 mo
  Median PFS: 2.3 mo
  ORR: 17%
  OS Rate 1-year: 42%
  OS Rate 2-year: 24%
[2]; Non-squamous, 1 mg/kg
  Median OS (95% CI): 9.9 (5.3, 22.5) mo
  ORR: 5.6 (1/18) % (n/N)
  OS Rate 1-year (95% CI): 36 (15, 58)
  OS Rate 2-year (95% CI): 15 (3, 36)
[2]; Non-squamous, 3 mg/kg
  Median OS (95% CI): 18.2 (5.2, NE) mo
  ORR: 26.3 (5/19) % (n/N)
  OS Rate 1-year (95% CI): 62 (37, 80)
  OS Rate 2-year (95% CI): 48 (22, 69)
[2]; Non-squamous, 10 mg/kg
  Median OS (95% CI): 7.4 (4.5, 12.4) mo
  ORR: 18.9 (7/37) % (n/N)
  OS Rate 1-year (95% CI): 36 (21, 52)
  OS Rate 2-year (95% CI): 15 (6, 29)
[2]; Non-squamous, All doses
  Median OS (95% CI): 10.1 mo and 10.1 (5.7, 13.7) mo
  ORR: 17.6 (13/74) % (n/N)
  OS Rate 1-year (95% CI): 43 (32, 54)
  OS Rate 2-year (95% CI): 23 (13, 34)
[2]; PD-L1+ (5% cut-off), Non-squamous
  ORR: 17 (3/18) % (n/N)
[2]; PD-L1+ (5% cut-off), Squamous
  ORR: 13 (2/15) % (n/N)
[2]; PD-L1+ tumors
  Median OS: 7.8 months
  Median PFS: 3.6 months
[2]; PD-L1 cut-off 1%, Negative
  ORR: 17 (5/30) % (n/N)
[2]; PD-L1 cut-off 1%, Positive
  ORR: 13 (5/38) % (n/N)
[2]; PD-L1 cut-off 5%, Negative, all patients
  ORR: 14 (5/35) % (n/N)
[2]; PD-L1 cut-off 5%, Positive, all patients
  ORR: 15 (5/33) % (n/N)
[2]; PD-L1− (5% cut-off), Non-squamous
  ORR: 10 (2/21) % (n/N)
[2]; PD-L1− (5% cut-off), Squamous
  ORR: 21 (3/14) % (n/N)
[2]; PD-L1− tumors
  Median OS: 10.5 months
  Median PFS: 1.8 months
[2]; Squamous, 1 mg/kg
  Median OS (95% CI): 8.0 (2.4, 13.3) mo
  ORR: 0 (0/15) % (n/N)
  OS Rate 1-year (95% CI): 27 (7, 51)
  OS Rate 2-year (95% CI): 9 (1, 32)
[2]; Squamous, 3 mg/kg
  Median OS (95% CI): 9.5 (5.3, NE) mo
  ORR: 22.2 (4/18) % (n/N)
  OS Rate 1-year (95% CI): 49 (23, 71)
  OS Rate 2-year (95% CI): 41 (17, 64)
[2]; Squamous, 10 mg/kg
  Median OS (95% CI): 10.5 (4.9, 16.7) mo
  ORR: 23.8 (5/21) % (n/N)
  OS Rate 1-year (95% CI): 43 (22, 62)
  OS Rate 2-year (95% CI): 22 (7, 42)
[2]; Squamous, All doses
  Median OS (95% CI): 9.2 mo and 9.2 (7.3, 12.5) mo
  ORR: 16.7 (9/54) % (n/N)
  OS Rate 1-year (95% CI): 40 (27, 54)
  OS Rate 2-year (95% CI): 24 (13, 37)
[2]; across doses
  patients maintaining SD for ≧48 weeks: 5%
Patients with NSCLC [3]; n = 52
  Arthralgia, All Gr: 5 (9.6) n (%)
  Arthralgia, GR ¾: 0 n (%)
  Constipation, All Gr: 3 (5.8) n (%)
  Constipation, GR ¾: 0 n (%)
  Diarrhea, All Gr: 6 (11.5) n (%)
  Diarrhea, GR ¾: 1 (1.9) n (%)
  Fatigue, All Gr: 15 (28.8) n (%)
  Fatigue, GR ¾: 0 n (%)
  Hypothyriodism, All Gr: 3 (5.8) n (%)
  Hypothyriodism, GR ¾: 0 n (%)
  Nausea, All Gr: 7 (13.5) n (%)
  Nausea, GR ¾: 0 n (%)
  Pneumonitis, All Gr: 3 (5.8) n (%)
  Pneumonitis, GR ¾: 1 (1.9) n (%)
  Pruritus, All Gr: 6 (11.5) n (%)
  Pruritus, GR ¾: 0 n (%)
  Rash, All Gr: 10 (19.2) n (%)
  Rash, GR ¾: 2 (3.8) n (%)
  Total patients with an event, All Gr: 37 (71.2) n (%)
  Total patients with an event, GR ¾: 10 (19.2) n (%)
  Vomiting, All Gr: 3 (5.8) n (%)
  Vomiting, GR ¾: 0 n (%)
Patients with NSCLC [3]; 52 treated
  Discontinued subjects: Toxicity: 6 (12%)
[4]
  Any-grade treatment-related adverse events: 62%
  grade 3 pleural effusion: 1 n
  grade 3 pneumonitis: 2 n
  pts discontinued due to treatment-related AEs: Four
  treatment-related grade 4 AEs: No treatment-related grade 4 AEs were reported
[5]; all pts of the treatment
  Stable disease as best overall response: 48%
[5]; non-sq pts
  Median PFS: 21.4 weeks
  Stable disease as best overall response: 46%
[5]; sq pts
  Median PFS: 16.0 weeks
  Stable disease as best overall response: 50%
[5]; switch maintenance
  Median OS: not reached
[5]; switch maintenance, RECIST 1.1
  ORR: 10%
Patients with NSCLC [6]; Arm F (n = 52)
  Best Overall Response: CR: 4 (8%)
  Best Overall Response: PD: 20 (38%)
  Best Overall Response: PR: 8 (15%)
  Best Overall Response: SD: 14 (27%)
  Best Overall Response: Unable to determine: 6 (12%)
  Best Overall Response: Unconfirmed PR: 0
  Confirmed DCR: 26 (50%)
  Confirmed ORR: 12 (23%)
  Overall DCR: 26 (50%)
  Overall ORR: 12 (23%)
Patients with NSCLC [6]; Arm F N = 52
  >80% target lesion reduction at 18 wks: 3 (6%)
  Median OS: 22.6 mos
  Median PFS: 15.6 wks
  Number of responders: 12 (23%)
  OS rate at 12 months: 74%
  Ongoing responder: 8 (67%)
  PFS rate at 24 weeks: 41%
Patients with NSCLC [6]; Non-squamous (n = 39)
  Best Overall Response: CR: 3 (8%)
  Best Overall Response: PD: 7 (18%)
  Best Overall Response: PR: 7 (18%)
  Best Overall Response: SD: 0
  Best Overall Response: Unable to determine: 6 (15%)
  Best Overall Response: Unconfirmed PR: 0
  Confirmed DCR: 18 (46%)
  Confirmed ORR: 10 (26%)
  Overall DCR: 18 (46%)
  Overall ORR: 10 (26%)
Patients with NSCLC [6]; Squamous (n = 13)
  Best Overall Response: CR: 1 (8%)
  Best Overall Response: PD: 5 (38%)
  Best Overall Response: PR: 1 (8%)
  Best Overall Response: SD: 6 (46%)
  Best Overall Response: Unable to determine: 0
  Best Overall Response: Unconfirmed PR: 0
  Confirmed DCR: 8 (62%)
  Confirmed ORR: 2 (15%)
  Overall DCR: 8 (62%)
  Overall ORR: 2 (15%)
PD-1; range 59% to 81%
  mean plateau PD-1 occupancy: 72%
PD-1; range 70% to 97%
  mean PD-1 occupancy rate: 85%
